Test results taken from a melting point compilation (Tetko et al.; mined from patent text by program, amines drawn as free bases though some values may be those of a salt).

Compound	melting point [°C]
O=C(NNc1ccccc1Cl)c1c(F)cccc1Cl	156 to 158
CCOP(=O)(Cc1ccc2ccccc2c1O)OCC	90.1 to 91.3
COc1c(C)c(OC(=O)c2c(C)c(C)c(OCCCN3C(=O)c4ccccc4S3(O)O)c(C)c2OC)c(C)c(C)c1C(=O)O	222 to 223
Cc1cc(CCCCCCCc2ccc(C#N)cc2)on1	61
CC(=O)NC(=S)NC1CC2c3cccc4[nH]cc(c34)CC2N(C)C1 (centres undefined)	240 to 242
CCCn1nc2c(-c3ccccc3)cccc2c1-c1ccc(OC)cc1	128 to 129
O=Cc1ccc(C#Cc2ccc(Cl)cc2)cc1	123
CCc1cc(NC(=O)N2CCN(c3cc(C)cc(C)c3)CC2)c(N2CCNCC2)nc1C	100 to 102
CSC(=N[N+](=O)[O-])N(C)SC(Cl)(Cl)Cl	75 to 78
Cc1ccc(CC2CCN(C(=O)c3cc(=O)c4cc(O)ccc4[nH]3)CC2)cc1	152
O=C(OCc1ccccc1)C(O)P(=O)(OCc1ccccc1)OCc1ccccc1 (centres undefined)	67 to 68
COC(=O)Cc1cn(Cc2ccccc2)nc1O	118 to 119
Cc1oc(-c2ccc(Cl)cc2)cc1C(=O)NCc1ccc2cc(OCC(=O)O)ccc2c1	177 to 181
CSc1nc(CC2CCN(c3ccc(C(C)(C)C)cc3)CC2)nc(C(=O)NCC(=O)O)c1O	135 to 136
C[C@](O)(COc1ccc(C#N)cc1)C(=O)Nc1ccc(C#N)c(C(F)(F)F)c1	92 to 94
COc1ccc(C(=O)C=Cc2cc(O)c(O)c([N+](=O)[O-])c2)cc1OC	206 to 208
CCOCc1nc2c(N)nc3ccc(OCc4ccccc4)cc3c2n1CCCCNC(=O)N1CCOCC1	150 to 153
O=C1NCCN1c1ccc(F)cc1N1CCN(C/C=C/c2ccc(Cl)cc2)CC1	170 to 172
O[C@@H]1C=CO[C@H](COCc2ccccc2)[C@H]1OCc1ccccc1	53
COC(=O)c1cc(C(=O)c2c(C)c(NC(=O)c3cccc(O)c3)c3ccccn23)ccc1N	278
COc1ccc(Cl)cc1[C@]1(F)C(=O)N(C(=O)N[C@H](C(=O)O)C(C)C)c2cc(C(F)(F)F)ccc21	100 to 104
CN(Cc1ccc(NC(=O)C2=Cc3cc(-c4ccc(S(C)(=O)=O)cc4)ccc3OCC2)cc1)C1CCOCC1	233 to 235
CC(=O)Nc1cnc(C=NNC(N)=S)cc1C	229 to 231
O=C(O)C(=O)c1ccc(OCCCCSc2ccc3ccccc3c2)cc1	113 to 115
CC(C(=O)OC(C)(C)C)C(C)(O)c1ccc(Cl)nc1NC(=O)C(C)(C)C (centres undefined)	146 to 148

Compound	melting point [°C]
CCCCCCCCCCCCCCOc1ccccc1NC(=O)c1cc(Sc2nnnn2-c2cccc(C(=O)OCC)c2)c2ccccc2c1O	88 to 90
CCCn1c(=O)c2[nH]c(/C=C/c3ccc4c(c3)OCO4)nc2n(CCC)c1=O	> 270
O=C1c2ccc(Nc3ccccc3)nc2CC2CCCCC12 (centres undefined)	214 to 216
CC(=O)Nc1ccc(C(C)(C)C(=O)O)cc1	170 to 171
CCOCc1nc(C(=O)OCC)c(C(=O)OCC)[nH]1	60 to 61
COc1ccc(F)cc1Oc1c(Cl)ncnc1NS(=O)(=O)c1ccc(C(F)(F)F)cc1	185 to 186
C[C@H]1CCC[C@@](O)(CNC(=O)c2c(Cl)ccc3nc(N4CC[C@H](O)C4)ccc23)C1	222
O=c1[nH]cc(-c2cccnc2)nc1Cc1ccccc1	188 to 190
O=c1[nH]c(SCCCN2CCN(c3ccccn3)CC2)nc2sc3c(c12)CCCC3	190 to 192
Cc1ccc(-c2nnc(Cl)nc2-c2ccc(C)cc2)cc1	126 to 130
COc1cccc(F)c1-c1ccc(NC(=O)OC(C)(C)C)c(N)c1	165 to 167
O=C(COc1ccc(NC(=O)OCCO)cc1)OCCOC(=O)COc1ccc(NC(=O)OCCO)cc1	158 to 161
Cc1ccccc1S(=O)(=O)c1cc2c(cc1C)OC(C(=O)O)O2 (centres undefined)	178 to 180
O=C(Cc1ccc(F)cc1)Nc1ccc(-n2nc(C(F)(F)F)cc2C2CC2)cc1	135 to 140
COc1ccc(C2CCN(c3c(C)c(C)c4c(c3C)C(O)C(C)(C)O4)CC2)cc1OC (centres undefined)	140 to 142
Cn1cc(C(=O)NCc2ccc(Cl)cc2)c(=O)c2cccc(C#CCCO)c21	195 to 197
CC(C)Oc1cc(-n2nc(Cl)n(C(F)F)c2=O)c(Cl)cc1Cl	115 to 119
Cc1[nH]cc2c1-c1ccc(Cl)cc1C(c1ccccc1F)=NC2	226 to 227
COC(=O)c1ccc(-c2cc(-c3ccccc3)no2)cc1	205 to 206
Cc1cccc(NC(=O)NC(C(=O)N(c2ccccc2)c2ccccc2)c2ccccc2)c1 (racemic)	181
CN1CCC(=C2c3ccc(F)cc3CCn3ccnc32)CC1	152
COc1cccc2c(=O)c3c(O)cc(OCC(S)CCl)cc3oc12 (centres undefined)	125
CC(c1ccc(C#Cc2ccccc2)cc1)N(O)C(N)=O (centres undefined)	144 to 146
COc1cc(OC)nc(NC(=O)NS(=O)(=O)c2nc(C)cc3c2C(=O)OC3)n1	149 to 153
